# pIC50: −log10 of the molar value.
# Target: POLRMT (Homo sapiens (Human), UniProt O00411)
# Assay: homogeneous TR-FRET assay of mitochondrial transcription (inhibition of POLRMT)
# Type: biochemical
# Settings: 7.5 nM POLRMT, 15 nM TFB2M, 30 nM TFAM, 0.5 nM DNA template, 500 μM NTPs, 37° C. for 60 minutes
# Summary of the method: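 POLRMT transcription from linearized pUC-LSP DNA template; RNA product detected by hybridization of ATTO647 acceptor (1 nM) and biotinylated donor (3 nM) probes plus Europium-streptavidin. Reaction stopped with EDTA/700 mM NaCl buffer, pH 7.5.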
# Sequence of POLRMT (O00411 42-1230): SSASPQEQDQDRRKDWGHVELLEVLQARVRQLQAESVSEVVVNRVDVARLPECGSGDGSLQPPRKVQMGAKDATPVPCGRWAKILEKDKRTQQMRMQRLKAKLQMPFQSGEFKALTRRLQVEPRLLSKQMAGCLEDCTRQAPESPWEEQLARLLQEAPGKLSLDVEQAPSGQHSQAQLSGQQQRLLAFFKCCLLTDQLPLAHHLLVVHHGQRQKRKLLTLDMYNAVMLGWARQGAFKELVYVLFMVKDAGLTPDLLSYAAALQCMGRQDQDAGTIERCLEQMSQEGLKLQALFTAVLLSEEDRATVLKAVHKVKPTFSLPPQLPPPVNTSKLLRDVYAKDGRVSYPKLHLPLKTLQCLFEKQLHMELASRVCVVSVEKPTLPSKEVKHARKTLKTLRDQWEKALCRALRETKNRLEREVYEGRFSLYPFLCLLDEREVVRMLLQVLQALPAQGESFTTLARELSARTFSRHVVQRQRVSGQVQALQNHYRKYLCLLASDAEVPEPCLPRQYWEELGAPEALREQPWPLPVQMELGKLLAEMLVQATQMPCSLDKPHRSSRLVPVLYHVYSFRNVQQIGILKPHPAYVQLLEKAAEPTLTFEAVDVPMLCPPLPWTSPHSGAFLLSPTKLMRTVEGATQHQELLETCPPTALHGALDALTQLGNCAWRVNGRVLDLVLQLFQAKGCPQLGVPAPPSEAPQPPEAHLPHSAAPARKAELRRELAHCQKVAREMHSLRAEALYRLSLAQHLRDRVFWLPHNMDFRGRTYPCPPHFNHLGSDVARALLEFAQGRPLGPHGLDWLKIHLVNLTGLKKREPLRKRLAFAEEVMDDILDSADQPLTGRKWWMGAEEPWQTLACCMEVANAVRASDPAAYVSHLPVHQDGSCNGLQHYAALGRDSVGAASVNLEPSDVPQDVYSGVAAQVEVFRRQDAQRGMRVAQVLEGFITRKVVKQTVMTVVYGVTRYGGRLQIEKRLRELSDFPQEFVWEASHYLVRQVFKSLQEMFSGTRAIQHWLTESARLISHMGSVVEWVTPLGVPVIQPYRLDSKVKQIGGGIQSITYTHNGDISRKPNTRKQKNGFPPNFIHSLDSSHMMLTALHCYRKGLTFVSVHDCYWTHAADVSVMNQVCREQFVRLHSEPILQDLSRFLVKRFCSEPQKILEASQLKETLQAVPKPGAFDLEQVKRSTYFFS
row,SMILES,pIC50
1,"Cc1ccccc1-c1cc(=O)oc2cc(CC(C)C(=O)N3CCC(C(=O)O)CC3)ccc12 (single isomer, unassigned) [Example 94, 1-(2-methyl-3-(2-oxo-4-(o-tolyl)-2H-chromen-7-yl)propanoyl)piperidine-4-carboxylic acid]",6.70
2,"CCOC(=O)[C@H]1CCCN(C(=O)C(C)Cc2ccc3c(-c4ccccc4C)cc(=O)oc3c2)C1 (single isomer, unassigned) [Example 87]",5.05
3,"CN(Cc1ccc2c(-c3ccc(F)cc3Cl)cc(=O)oc2c1)C(=O)N1CCC[C@H](C(=O)O)C1 [Example 08, (S)-1-(((4-(2-chloro-4-fluorophenyl)-2-oxo-2H-chromen-7-yl)methyl)(methyl)carbamoyl)piperidine-3-carboxylic acid]",6.00
4,"CCOC(=O)CCc1ccc2c(-c3ccccc3C)cc(=O)oc2c1 [Example 54, ethyl 3-(2-oxo-4-(o-tolyl)-2H-chromen-7-yl)propanoate]",6.05
5,"CCOC(=O)[C@H]1CCCN(C(=O)[C@@H](C)Oc2cc(C)cc3oc(=O)cc(-c4ccc(F)cc4)c23)C1 [Example 159, ethyl (S)-1-((R)-2-((4-(4-fluorophenyl)-7-methyl-2-oxo-2H-chromen-5-yl)oxy)propanoyl)piperidine-3-carboxylate]",< 4.00
6,"Cc1ccccc1-c1cc(=O)oc2cc(CC(C)C(=O)N3CCC(C(=O)O)CC3)ccc12 (single isomer, unassigned) [Example 95, 1-(2-methyl-3-(2-oxo-4-(o-tolyl)-2H-chromen-7-yl)propanoyl)piperidine-4-carboxylic acid]",5.40
7,"CN(CC(=O)O)c1ccc2c(-c3ccc(F)cc3Cl)cc(=O)oc2c1 [Example 105, N-(4-(2-chloro-4-fluorophenyl)-2-oxo-2H-chromen-7-yl)-N-methylglycine]",6.30
8,"Cc1ccccc1-c1cc(=O)oc2cc(N(C)Cc3ccon3)ccc12 [Example 204, 7-((isoxazol-3-ylmethyl)(methyl)amino)-4-(o-tolyl)-2H-chromen-2-one]",7.52
9,"O=C(O)CCNc1ccc2c(-c3ccccc3Cl)cc(=O)oc2c1 [Example 131, 3-((4-(2-chlorophenyl)-2-oxo-2H-chromen-7-yl)amino)propanoic acid]",5.10
10,"Cc1ccccc1-c1cc(=O)oc2cc(NCC(C)C(=O)O)ccc12 (single isomer, unassigned) [Example 155-1, 2-methyl-3-((2-oxo-4-(o-tolyl)-2H-chromen-7-yl)amino)propanoic acid]",6.30
11,"COCC(Nc1ccc2c(-c3ccccc3C)cc(=O)oc2c1)C(N)=O (centres unmarked) [Example 199, 3-methoxy-2-((2-oxo-4-(o-tolyl)-2H-chromen-7-yl)amino)propanamide]",6.10
12,"Cc1ccccc1-c1cc(=O)oc2cc(CO)ccc12 [Example 09, 7-(hydroxymethyl)-4-(o-tolyl)-2H-chromen-2-one]",5.00
13,"Cc1ccccc1-c1cc(=O)oc2cc(CC(C)C(=O)N3CCC[C@H](C(N)=O)C3)ccc12 (single isomer, unassigned) [Example 90]",5.10
14,"COC(C)c1ccc2c(-c3ccccc3C)cc(=O)oc2c1 (centres unmarked) [Example 74, 7-(1-methoxyethyl)-4-(o-tolyl)-2H-chromen-2-one]",6.15
15,"Cc1ccccc1-c1cc(=O)oc2cc([C@@H]3C[C@H]3C(N)=O)ccc12 (relative stereo) [Example 238, chiral-(trans)-2-(2-oxo-4-(o-tolyl)-2H-chromen-7-yl)cyclopropane-1-carboxamide]",5.52
16,"Cc1ccccc1-c1cc(=O)oc2cc([C@@H]3C[C@H]3C(=O)O)ccc12 (relative stereo) [Example 227, (trans)-2-(2-oxo-4-(o-tolyl)-2H-chromen-7-yl)cyclopropane-1-carboxylic acid]",5.52
17,"C[C@@H](Cc1ccc2c(-c3ccc(F)cc3Cl)cc(=O)oc2c1)C(=O)N1CCCCC1 [Example 18, (S)-4-(2-chloro-4-fluorophenyl)-7-(2-methyl-3-oxo-3-(piperidin-1-yl)propyl)-2H-chromen-2-one]",6.70

# Further lines, results first:
row,pIC50,SMILES
1,5.70,"Cc1ccccc1-c1cc(=O)oc2cc(CNC(=O)N3CCC[C@H](C(=O)O)C3)ccc12 [Example 150, (S)-1-(((2-oxo-4-(o-tolyl)-2H-chromen-7-yl)methyl)carbamoyl)piperidine-3-carboxylic acid]"
2,5.70,"CC(O)c1ccc2c(-c3ccc(F)cc3Cl)cc(=O)oc2c1 (centres unmarked) [Example 40, 4-(2-chloro-4-fluorophenyl)-7-(1-hydroxyethyl)-2H-chromen-2-one]"
3,5.52,"Cc1ccccc1-c1cc(=O)oc2cc([C@H]3C[C@H]3C(=O)N(C)C)ccc12 (relative stereo) [Example 234, (cis)-N,N-dimethyl-2-(2-oxo-4-(o-tolyl)-2H-chromen-7-yl)cyclopropane-1-carboxamide]"
4,6.40,"CN(C)c1ccc2c(-c3ccc(F)cc3Cl)cc(=O)oc2c1 [Example 31, 4-(2-chloro-4-fluorophenyl)-7-(dimethylamino)-2H-chromen-2-one]"
5,4.89,"Cc1ccccc1-c1cc(=O)oc2cc(C#N)ccc12 [Example 43, 2-oxo-4-(o-tolyl)-2H-chromene-7-carbonitrile]"
6,6.15,"CCOC(=O)[C@H]1C[C@@H]1c1ccc2c(-c3ccccc3C)cc(=O)oc2c1 [Example 225, ethyl (1S,2S)-2-(2-oxo-4-(o-tolyl)-2H-chromen-7-yl)cyclopropane-1-carboxylate]"
7,7.00,"Cc1ccccc1-c1cc(=O)oc2cc(N(C)CC(=O)NCC(F)(F)F)ccc12 [Example 220, 2-(methyl(2-oxo-4-(o-tolyl)-2H-chromen-7-yl)amino)-N-(2,2,2-trifluoroethyl)acetamide]"
8,4.80,"COC[C@H]1CCN(C(=O)c2ccc3c(-c4ccccc4C)cc(=O)oc3c2)C1 [Example 123, (S)-7-(3-(methoxymethyl)pyrrolidine-1-carbonyl)-4-(o-tolyl)-2H-chromen-2-one]"
9,6.52,"CC(C(N)=O)N(C)c1ccc2c(-c3ccccc3)cc(=O)oc2c1 (centres unmarked) [Example 194, 2-(methyl(2-oxo-4-phenyl-2H-chromen-7-yl)amino)propanamide]"
10,6.52,"COC[C@@H](C(=O)N1CCC[C@H](C(=O)O)C1)N(C)c1ccc2c(-c3ccccc3C)cc(=O)oc2c1 (single isomer, unassigned) [Example 121]"
11,4.36,"Cc1ccccc1-c1cc(=O)oc2cc(C(C)N(C)C)ccc12 (centres unmarked) [Example 78, 7-(1-(dimethylamino)ethyl)-4-(o-tolyl)-2H-chromen-2-one]"
12,6.00,"Cc1ccccc1-c1cc(=O)oc2cc(C(C)CC(=O)N3CCC[C@H](C(=O)O)C3)ccc12 (single isomer, unassigned) [Example 81]"
13,4.68,"Cc1ccccc1-c1cc(=O)oc2cc(NC3(C(N)=O)CC3)ccc12 [Example 213, 1-((2-oxo-4-(o-tolyl)-2H-chromen-7-yl)amino)cyclopropane-1-carboxamide]"
14,6.70,"Cc1ccccc1-c1cc(=O)oc2cc(CNC(=O)C3CCC(C(=O)O)CC3)ccc12 (centres unmarked) [Example 153, 4-(((2-oxo-4-(o-tolyl)-2H-chromen-7-yl)methyl)carbamoyl)cyclohexane-1-carboxylic acid]"
15,< 4.00,"Cc1cc(O[C@H](C)C(=O)N(C)C)c2c(-c3ccc(F)cc3)cc(=O)oc2c1 [Example 162, (R)-2-((4-(4-fluorophenyl)-7-methyl-2-oxo-2H-chromen-5-yl)oxy)-N,N-dimethylpropanamide]"
